Laboratory results reported in patent publication US20240415918A1, “Polypeptide and its use as a CCK receptor agonist/antagonist” (Centre for Regenerative Medicine & Health, Hong Kong …, priority 2021, published 2024).
*1 amine or outer side, *2 acyl side, *3 side chain or, on linkers, in order; H or OH if unused. Where a SMILES comes first, the peptide text is derived from it. [ ]: non-standard residue; d: D form. The star is where a group is joined. X1 = O=C([C@@]1(O)C[C@@H](O)[C@H](N[*:1])C([C@@H](O)[C@@H](O)CO)O1)[*:2]; NMeW = CN[C@@H](Cc1c[nH]c2ccccc12)C(=O)O; Phe(3-Br) = N[C@@H](Cc1cccc(Br)c1)C(=O)O; Fmoc = O=C(OCC1c2ccccc2-c2ccccc21)*; Nle = CCCC[C@H](N)C(=O)O

Target: T1, CCK-B receptors (CHO-CCK) (Homo sapiens, UniProt P32239)
T1 construct: expressed in transfected cells; host or cells: CHO (CHO-CCK model cells)
T1 sequence (P32239 1-447): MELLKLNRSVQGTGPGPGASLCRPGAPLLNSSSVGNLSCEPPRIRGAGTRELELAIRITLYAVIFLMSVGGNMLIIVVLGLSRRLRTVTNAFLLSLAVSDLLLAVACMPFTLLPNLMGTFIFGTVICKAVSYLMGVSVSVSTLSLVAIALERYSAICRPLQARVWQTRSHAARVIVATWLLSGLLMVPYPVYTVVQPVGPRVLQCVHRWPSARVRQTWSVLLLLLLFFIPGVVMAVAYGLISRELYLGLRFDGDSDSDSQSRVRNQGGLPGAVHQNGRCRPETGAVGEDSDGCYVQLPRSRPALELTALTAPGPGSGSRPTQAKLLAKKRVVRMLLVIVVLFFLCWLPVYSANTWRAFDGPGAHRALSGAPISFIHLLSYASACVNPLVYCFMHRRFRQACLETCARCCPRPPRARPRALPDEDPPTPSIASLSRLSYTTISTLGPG
Test: Calcium flux (Fluo-8) agonist test on CHO-CCK model cells
Format: cell-based
Settings: for Agonistic Activity (%) at 10 μM: compound at 10 μM, percentage of signal of 20 nM CCK8 alone; for EC50 / % Act-Ave @ 1 nM / % Act-Ave @ 50 nM: CHO-CCK cells; for % Act-Ave @ 1 nM: compound at 1 nM; for % Act-Ave @ 50 nM: compound at 50 nM
Method: • To detect changes in intracellular calcium ion concentration after the compound acts on model cells containing CCK-B receptors (CHO-CCK).
• 1. The compound was formulated to a 10 mM mother liquor with DMSO, and then diluted into a series of 9 concentrations with a 3-fold gradient to form a 1000× stock solution.
2.1 Agonist • The compound stock solution was subjected to 200-fold dilution with HHBS buffer to form a 5× working solution.
• 1. Plate CHO-CCK cells in a 96-well plate with media containing 1% FBS, 30,000 cells/well/100 μL, and incubate overnight at 37° C. • 2. Prepare 1×Fluo-8 analysis buffer: mix 9 mL of HHBS, 1 mL of 10× Pluronic F127 Plus and 20 μL of Fluo-8 thoroughly for later use. • 3. Add Fluo-8 dye working solution to the cell plate, 100 μL/well. First incubate in a 37° C. incubator for 30 min, and then take it out and incubate at room temperature in the dark for 30 min. • 4. In the process of incubating cells, the compounds to be detected were prepared with HHBS. • 5.
The agonism/antagonism EC50 of the compound can be obtained by plotting the fitting curve with the agonism/antagonism percentage as Y-axis and the concentration of the compound as X-axis.

[1] = Fluo-8 calcium flux, 100% control = 20 nM CCK8

| SMILES | Agonistic Activity (%) at 10 μM | other results |
| --- | --- | --- |
| COC(=O)C[C@H](NC(=O)[C@H](CC[S+](C)[O-])NC(=O)[C@H](N)Cc1c[nH]c2ccccc12)C(=O)N[C@@H](Cc1ccc([N+](=O)[O-])cc1)C(N)=O (stereo partly drawn) [HT-118, D-Trp-Met(O)-Asp(Ome)-Phe(4-NO2)-NH2] | 0.13% | – |
| COC(=O)C[C@H](NC(=O)[C@H](CC[S+](C)[O-])NC(=O)[C@H](N)Cc1c[nH]c2ccccc12)C(=O)N[C@@H](Cc1ccccc1)C(N)=O (stereo partly drawn) [HT-20, D-Trp-Met(O)-Asp(OMe)-Phe-NH2] | −9.73% | – |
| COC(=O)C[C@H](NC(=O)[C@H](CCS(C)(=O)=O)NC(=O)[C@H](N)Cc1c[nH]c2ccccc12)C(=O)N[C@@H](Cc1ccccc1[N+](=O)[O-])C(N)=O [HT-126, D-Trp-Met(O)-Asp(Ome)-Phe(2-NO2)-NH2] | 9.50% | – |
| C[S+]([O-])CC[C@H](NC(=O)[C@H](N)Cc1c[nH]c2ccccc12)C(=O)N[C@@H](CC(=O)OCCNc1cccc2c(O)cccc12)C(=O)N[C@@H](Cc1ccccc1[N+](=O)[O-])C(N)=O (stereo partly drawn) [HT-143, D-Trp-Met(O)-Asp(EDANS)-Phe(2-NO2)-NH2] | 4.33% | – |
| COC(=O)C[C@H](NC(=O)[C@H](CCSC)NC(=O)[C@H](N)Cc1c[nH]c2ccccc12)C(=O)N[C@@H](Cc1ccccc1F)C(N)=O [HT-76, D-Trp-Met-Asp(Ome)-Phe(2-F)-NH2] | 23.09% | – |
| C[S+]([O-])CC[C@H](NC(=O)[C@H](N)Cc1c[nH]c2ccccc12)C(=O)N[C@@H](CC(=O)OCCNc1cccc2c(O)cccc12)C(=O)N[C@@H](Cc1cc(F)c(F)c(F)c1)C(N)=O (stereo partly drawn) [HT-159, D-Trp-Met(O)-Asp(EDANS)-Phe(3,4,5-TriF)-NH2] | 4.93% | – |
| CSCC[C@@H]1NC(=O)[C@H](Cc2c[nH]c3ccccc23)NCCC(=O)CNC(=O)CNC(=O)CNC(=O)CNC(=O)[C@H](Cc2cccc(Br)c2)NC(=O)[C@H](CC(=O)O)NC1=O [HT-291, cyclo(Trp-Met-Asp-Phe(3-Br)-Gly-Gly-Gly-Gly)] | – | EC50 [1]: 10.6 µM |
| Cc1ccc(C[C@H](NC(=O)[C@H](CC(=O)O)NC(=O)[C@H](CC[S+](C)[O-])NC(=O)[C@H](N)Cc2c[nH]c3ccccc23)C(N)=O)cc1 (stereo partly drawn) [HT-47, D-Trp-Met(O)-Asp-Phe(4-Me)-NH2] | 26.99% | – |
| COC(=O)C[C@H](NC(=O)[C@H](CCS(C)(=O)=O)NC(=O)[C@H](N)Cc1c[nH]c2ccccc12)C(=O)N[C@@H](Cc1ccc(Cl)cc1)C(N)=O [HT-137, D-Trp-Met(O2)-Asp(Ome)-Phe(4-Cl)-NH2] | 2.10% | – |
| CC(=O)N[C@@H](CC(=O)O)C(=O)N[C@@H](Cc1ccccc1)C(N)=O [HT-284, Ac-Asp-Phe-NH2] (Ac-Asp-Phe-NH2) | – | % Act-Ave @ 1 nM: 0.01%; % Act-Ave @ 50 nM: 0.09% |
| CSCC[C@H](NC(=O)[C@@H](CC(=O)O)NC(=O)[C@H](Cc1ccccc1)NC(C)=O)C(=O)N[C@@H](Cc1c[nH]c2ccccc12)C(=O)O [HT-4, Ac-Phe-D-Asp-Met-Trp-NH2] | – | EC50 (compound alone, bound in μM): > 10 µM |
| COC(=O)C[C@H](NC(=O)[C@H](CCS(C)(=O)=O)NC(=O)[C@H](N)Cc1c[nH]c2ccccc12)C(=O)N[C@@H](Cc1ccc(C)cc1)C(N)=O [HT-132, D-Trp-Met(O2)-Asp(Ome)-Phe(4-Me)-NH2] | −14.42% | – |
| COC(=O)C[C@H](NC(=O)[C@H](CCSC)NC(=O)[C@H](N)Cc1c[nH]c2ccccc12)C(=O)N[C@@H](Cc1ccc(N=[N+]=[N-])cc1)C(N)=O [HT-82, D-Trp-Met-Asp(Ome)-Phe(4-N3)-NH2] | 12.78% | – |
| C[S+]([O-])CC[C@H](NC(=O)[C@H](N)Cc1c[nH]c2ccccc12)C(=O)N[C@@H](CC(=O)OCCNc1cccc2c(O)cccc12)C(=O)N[C@@H](Cc1ccc(F)cc1)C(N)=O (stereo partly drawn) [HT-155, D-Trp-Met(O)-Asp(EDANS)-Phe(4-F)-NH2] | 0.50% | – |
| COC(=O)C[C@H](NC(=O)[C@H](CC[S+](C)[O-])NC(=O)[C@H](N)Cc1c[nH]c2ccccc12)C(=O)N[C@@H](Cc1cccc(Cl)c1)C(N)=O (stereo partly drawn) [HT-111, D-Trp-Met(O)-Asp(Ome)-Phe(3-Cl)-NH2] | −7.28% | – |
| CSCC[C@@H](NC(=O)[C@@H](CC(=O)O)NC(=O)[C@@H](Cc1ccccc1)NC(C)=O)C(=O)N[C@H](Cc1c[nH]c2ccccc12)C(N)=O [HT-8, Ac-D-Phe-D-Asp-D-Met-D-Trp-NH2] (Ac-[dF][dD][dM][dW]-NH2) | – | EC50 (compound alone, bound in μM): > 10 µM |
| CSCC[C@H](NC(=O)[C@H](N)Cc1c[nH]c2ccccc12)C(=O)N[C@@H](CC(=O)OCCNc1cccc2c(O)cccc12)C(=O)N[C@@H](Cc1ccc(Cl)cc1)C(N)=O [HT-103, D-Trp-Met-Asp(EDANS)-Phe(4-Cl)-NH2] | 1.03% | – |
| CCCC[C@H](NC(=O)[C@H](Cc1c[nH]c2ccccc12)N(C)C(=O)[C@@]1(O)C[C@@H](O)[C@H](NC(C)=O)C([C@@H](O)[C@@H](O)CO)O1)C(=O)N[C@@H](CC(=O)O)C(=O)N[C@@H](Cc1cccc(Br)c1)C(N)=O (stereo partly shown) [HT-274, Sia-(N-Me-Trp)-Nle Asp-Phe(3-Br)-NH2] (Ac-[X1][NMeW][Nle]D[Phe(3-Br)]-NH2) | – | % Act-Ave @ 1 nM: 0.10%; % Act-Ave @ 50 nM: 72.88% |
| COC(=O)C[C@H](NC(=O)[C@H](CC[S+](C)[O-])NC(=O)[C@H](N)Cc1c[nH]c2ccccc12)C(=O)N[C@@H](Cc1cc(F)c(F)c(F)c1)C(N)=O (stereo partly drawn) [HT-125, D-Trp-Met(O)-Asp(Ome)-Phe(3,4,5-TriF)-NH2] | −4.16% | – |
| CS(=O)(=O)CC[C@H](NC(=O)[C@H](N)Cc1c[nH]c2ccccc12)C(=O)N[C@@H](CC(=O)O)C(=O)N[C@@H](Cc1ccc(I)cc1)C(N)=O [HT-71, D-Trp-Met(O2)-Asp-Phe(4-I)-NH2] | 13.13% | – |
| CCCC[C@H](NC(=O)[C@H](Cc1c[nH]c2ccccc12)N(C)C(=O)[C@@]1(O)C[C@@H](O)[C@H](NC(C)=O)C([C@@H](O)[C@@H](O)CO)O1)C(=O)N[C@@H](CC(=O)O)C(=O)N[C@@H](Cc1cccc(Br)c1)C(N)=O (stereo partly drawn) [HT-278, Sia-(N-Me-Trp)-Nle-Asp-Phe(3-Br)-NH2] (Ac-[X1][NMeW][Nle]D[Phe(3-Br)]-NH2) | – | % Act-Ave @ 1 nM: 40.85%; % Act-Ave @ 50 nM: 93.12% |
| C[S+]([O-])CC[C@H](NC(=O)[C@H](N)Cc1c[nH]c2ccccc12)C(=O)N[C@@H](CC(=O)O)C(=O)N[C@@H](Cc1ccc([N+](=O)[O-])cc1)C(N)=O (stereo partly drawn) [HT-50, D-Trp-Met(O)-Asp-Phe(4-NO2)-NH2] | 11.85% | – |
| COC(=O)C[C@H](NC(=O)[C@H](CC[S+](C)[O-])NC(=O)[C@H](N)Cc1c[nH]c2ccccc12)C(=O)N[C@@H](Cc1ccc(I)cc1)C(N)=O (stereo partly drawn) [HT-122, D-Trp-Met(O)-Asp(Ome)-Phe(4-I)-NH2] | 5.16% | – |
| C[S+]([O-])CC[C@H](NC(=O)[C@H](N)Cc1c[nH]c2ccccc12)C(=O)N[C@@H](CC(=O)O)C(=O)N[C@@H](Cc1ccc(I)cc1)C(N)=O (stereo partly drawn) [HT-54, D-Trp-Met(O)-Asp-Phe(4-I)-NH2] | 3.14% | – |
| CCCC[C@H](NC(=O)[C@H](Cc1c[nH]c2ccccc12)N(C)C(=O)OCC1c2ccccc2-c2ccccc21)C(=O)N[C@@H](CC(=O)O)C(=O)N[C@@H](Cc1cccc(Br)c1)C(N)=O [HT-199, Fmoc-(N-Me-Trp)-Nle-Asp-Phe(3-Br)-NH2] (Fmoc-[NMeW][Nle]D[Phe(3-Br)]-NH2) | – | EC50 [1]: 0.00147 µM |
